In PubChem BioAssay (NCI) one finds TGI and GI50 data, which are given here for nine compounds.

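1) Cells in 96-well plates. 2) Compound, 48 h, 5 concentrations. 3) Linear interpolation between surrounding doses. 4) Unreached endpoint = highest concentration. Abbreviation: GI50, concentration required for 50% inhibition of growth. TGI marks complete inhibition of growth.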 Where only a bound is given, the exact number is not on record here.

Among the test systems are NCI-H522 lung; HOP-62 NSCLC; EKVX NSCLC; SW-620 colon; SF-539 CNS; SK-MEL-5 melanoma; M14 melanoma; HT29 colon; MALME-3M melanoma; UO-31 renal.
Holding throughout (experiment): inhibition of tumour cell growth, NCI panel, 48 h

On to `ClC1=C(Cl)C(Cl)(Cl)c2c3c(c4c(c21)C(Cl)(Cl)C(Cl)=C4Cl)C(Cl)(Cl)C(Cl)=C3Cl`, for which the TGI in the assay on NCI-H522 lung, in the assay with HOP-62 NSCLC, in the assay on EKVX NSCLC, in the assay on SW-620 colon, in the assay on SF-539 CNS and in the assay on SK-MEL-5 melanoma was greater than 100 µM throughout. Besides, the TGI in the assay with M14 melanoma, in the assay with HT29 colon and in the assay on MALME-3M melanoma was greater than 100 µM throughout.

With `O=C(O)CCNS(=O)(=O)c1ccc([N+](=O)[O-])cc1`, the TGI in the assay on NCI-H522 lung, in the assay with EKVX NSCLC, in the assay with SW-620 colon, with SF-539 CNS, in the assay on SK-MEL-5 melanoma and in the assay on UO-31 renal was greater than 100 µM throughout. For the same compound, the TGI in the assay on M14 melanoma, in the assay on HT29 colon and in the assay on MALME-3M melanoma was greater than 100 µM each time.

As to `Cc1cc2c(c(C(N)=O)c1C)-c1cc(Cl)cc(Cl)c1C2=O`, the TGI in the assay with NCI-H522 lung, in the assay with HOP-62 NSCLC, in the assay with EKVX NSCLC, in the assay on SF-539 CNS, with UO-31 renal and in the assay with M14 melanoma was greater than 100 µM throughout. Further, the TGI in the assay on HT29 colon and in the assay with MALME-3M melanoma was greater than 100 µM throughout.

As for `CCOC(=O)C1Nc2ccccc2[C@H]2OCC[C@@H]12` (some centres not stated), the TGI in the assay with NCI-H522 lung, in the assay with HOP-62 NSCLC, in the assay on EKVX NSCLC, in the assay with SW-620 colon, in the assay with SF-539 CNS and in the assay on SK-MEL-5 melanoma was greater than 100 µM in each case. The TGI in the assay on M14 melanoma, with HT29 colon and in the assay on MALME-3M melanoma was greater than 100 µM each time.

Consider `CC1=NN(c2ccccc2)C(=O)/C1=C\c1ccc([N+](=O)[O-])cc1`, for which the TGI with NCI-H522 lung was 57.9 µM; with EKVX NSCLC, greater than 100 µM; in the assay with SW-620 colon it was 93.2 µM; in the assay with SF-539 CNS, 45.2 µM; in the assay with SK-MEL-5 melanoma it was 54.5 µM; in the assay on UO-31 renal, greater than 100 µM. The TGI in the assay with M14 melanoma is greater than 100 µM; with HT29 colon, 97 µM; in the assay with MALME-3M melanoma, 69.3 µM.

Turning to `CCOC(=O)c1cc2c(cc1Cl)SC(=Nc1ccccc1)N(S(=O)(=O)c1ccc(Br)s1)S2(=O)=O`, the GI50 is 26.4 µM in the assay with NCI-H522 lung; 23.3 µM with HOP-62 NSCLC; 15.5 µM with EKVX NSCLC; 16.6 µM in the assay with SW-620 colon; 14.3 µM in the assay on SF-539 CNS; 12.1 µM in the assay on SK-MEL-5 melanoma. Further, the GI50 in the assay on UO-31 renal was 22.1 µM; with M14 melanoma it was 15.2 µM; with HT29 colon, 31.2 µM. Also, the TGI was determined as 74.9 µM in the assay with NCI-H522 lung; 44.2 µM in the assay with HOP-62 NSCLC; 32.3 µM in the assay on EKVX NSCLC; 34.3 µM in the assay on SW-620 colon; 29.3 µM in the assay with SF-539 CNS; 25.2 µM in the assay with SK-MEL-5 melanoma. In addition, the TGI was 53.9 µM with UO-31 renal, 35 µM in the assay with M14 melanoma and greater than 100 µM in the assay with HT29 colon.

Consider `O=C1C(OCCOc2ccccc2)=C(OCCOc2ccccc2)C(=O)c2ccccc21`, for which the GI50 was 3.93 µM in the assay with NCI-H522 lung; 9.26 µM in the assay on HOP-62 NSCLC; greater than 100 µM in the assay on EKVX NSCLC; 4.7 µM with SW-620 colon; greater than 100 µM in the assay with SF-539 CNS; 1.92 µM with SK-MEL-5 melanoma. Further, the results for the GI50 with UO-31 renal, in the assay on HT29 colon and with MALME-3M melanoma were 12.2 µM, 9.95 µM and 24.5 µM, respectively. Moreover, the TGI in the assay on NCI-H522 lung was greater than 100 µM; in the assay with HOP-62 NSCLC, greater than 100 µM; with EKVX NSCLC, greater than 100 µM; in the assay with SW-620 colon, greater than 100 µM; in the assay on SF-539 CNS, greater than 100 µM; with SK-MEL-5 melanoma, 4.86 µM. Further, the TGI with UO-31 renal, with HT29 colon and in the assay with MALME-3M melanoma was greater than 100 µM each time.

Turning to `COc1cc2cc(Oc3ccc(NC(=O)c4ccc(Cl)c(Cl)c4)cc3)c(C)nc2cc1OC`, the GI50 is 6.27 µM in the assay with NCI-H522 lung; greater than 100 µM with HOP-62 NSCLC; 6.8 µM in the assay on EKVX NSCLC; greater than 100 µM in the assay with SW-620 colon; greater than 100 µM in the assay with SF-539 CNS; 4.99 µM with SK-MEL-5 melanoma. Moreover, the GI50 with UO-31 renal was 8.44 µM; in the assay on HT29 colon it was 7.89 µM; in the assay on MALME-3M melanoma it was greater than 100 µM. Besides, the TGI in the assay with NCI-H522 lung, in the assay with HOP-62 NSCLC, in the assay with EKVX NSCLC, with SW-620 colon, in the assay on SF-539 CNS and in the assay with SK-MEL-5 melanoma was greater than 100 µM in each case. For the same compound, the TGI in the assay with UO-31 renal, in the assay on HT29 colon and in the assay on MALME-3M melanoma was greater than 100 µM each time.

As for `Cc1cc(=O)c2c(O)cc3c(c2o1)CC=C(COC1OC(COC2OC(CO)C(O)C(O)C2O)C(O)C(O)C1O)CO3` (configuration not stated), the TGI in the assay on NCI-H522 lung, in the assay with HOP-62 NSCLC, in the assay with EKVX NSCLC, with SW-620 colon, in the assay with SF-539 CNS and in the assay with SK-MEL-5 melanoma was greater than 100 µM in each case. Besides, the TGI in the assay on UO-31 renal, with M14 melanoma and with MALME-3M melanoma was greater than 100 µM throughout.
